Data taken from PubChem BioAssay AID624143 (National Center for Advancing Translational Sciences (NCATS), 2012).

Tested on: mouse plasma stability, LC-MS/MS, 48 h
Experiment: qHTS Assay to Find Inhibitors of T. brucei phosphofructokinase: Mouse Plasma Stability Profiling
Details: at 2 µM; active compounds read high

Question: With `O=C(Cc1ccc(Cl)c(Cl)c1)Nc1ccc(S(=O)(=O)Nc2ccon2)cc1` as the molecule, how does the percent remaining read?
Answer: 100%
